Measured values taken from patent US20050085528A1 (priority 2003, published 2005).

Key:
[1] = tested on: HCV replicon (Huh 5-2 [I389luc-ubi-neo-NS3-3′/5.1]); assay: microbe, parasite or virus in culture; format: cell-based; settings: for Inhibition of luciferase expression in replicon cells (in words): FIG. 2; for IC50: Hepatitis C virus, Huh-5-2, luciferase, 72 hours statin treatment
[2] = tested on: EMCV IRES; assay: Green fluorescent protein assay (pIRES2-EGFP); format: cell-based, Encephalomyocarditis virus; settings: atorvastatin concentrations which reduced HCV replicon activity (10 uM, FIG. 5)
Procedure: Replicon cells were electroporated in cytomix buffer at 10^7 cells/mL at 960 uF, 270 V with varying amounts pIRES2-EGFP. Cell viability was monitored by trypan blue staining and cell counting. Aliquots of cells (2×10^4) were plated out in clear bottomed black 96 well plates and incubated for 24 hours. The cells were rinsed with PBS and fluorescence output read using an Analyst HT (LJL Biosystems).
Impairment of this function was examined in the presence of statins. Replicon cells were transfected with varying amounts of pIRES2-EGFP in which the green fluorescent protein reporter is expressed by a EMCV IRES.

[3] = tested on: Replicon cells; assay: cells; settings: read-out: Cytostatic (IC50)
[4] = tested on: Replicon cells; settings: @ 10 μM
[5] = in vitro; settings: replicon cells (lucubineo cells)
[6] = tested on: HCV replicon RNA; assay: Quantitative RT-PCR (Taqman) of replicon RNA; format: cell-based; settings: FIG. 2A
Procedure: Statin-treated cells in the duplicate clear plate were analysed for cytotoxicity by addition of 10 μL WST-1 reagent (Roche Biosciences) to each well and incubated for 37° C. for 60 minutes. After vigorous shaking, the plate was read at 450 nm. The supernatent was removed and the monolayer washed with PBS prior to addition 100 μL RLT lysis buffer (Qiagen RNAeasy kit) to each test well, followed by vigorous resuspension to ensure uniform lysis of all cells. Total RNA was extracted according to Qiagen RNAeasy protocols recommended by manufacturer. Briefly, 0.1 μg total RNA was reverse transcribed using random hexamers and 20% cDNA produced was used as a template in a Taqman reaction (Universal PCR Master Mix protocol p\n 43044449 Rev B).
These procedures are described in Perkin Elmer Biosystems User Bulletin 2. Briefly, the quantity of replicon RNA in a given sample was determined relative to the untreated control and normalised with respect to actin. Having established that the efficiencies of the replicon and actin PCR reactions were similar (data not shown), the relative quantity of replicon RNA was described by 2^−ΔΔCt where, ΔΔCt=ΔCt(test)−ΔCt(control) ΔCt(test)[…]−Ct(actin) and ΔCt(control)=Ct(control)−Ct(actin) Cholesterol Biosynthesis Assay

[7] = tested on: Replicon cells
[8] = 6- to 12-month course; cited from earlier work

Question: Which “Inhibition of luciferase expression in replicon cells (in words)” value [1] does the source give for `CC(C)c1c(C(=O)Nc2ccccc2)c(-c2ccccc2)c(-c2ccc(F)cc2)n1CC[C@@H](O)C[C@@H](O)CC(=O)O` (relative stereo) [Atorvastatin, [R-(R*,R*)]-2-(4-fluorophenyl)-b,d-dihydroxy-5-(1-methylethyl)-3-phenyl-4[(phenylamino)carbonyl]-IH-pyrrole-1-heptanoic acid] here?
Answer: increased antiviral activity compared to lovastatin

Question: And the IC50 [1]?
Answer: 4.1 µM

Question: What about the “Effect on GFP signal driven by EMCV IRES” value [2] of the same compound?
Answer: no effect

Question: And the IC50 [3]?
Answer: 2.5 µM

Question: And the “Cytotoxicity, % at one concentration” value [4]?
Answer: 18.3% @ 10 μM

Question: Which IC50 [1] does the source give for `COCc1c(C(C)C)nc(C(C)C)c(/C=C/[C@@H](O)C[C@@H](O)CC(=O)O)c1-c1ccc(F)cc1` [Cerivastatin] here?
Answer: 1.1 µM

Question: What about the IC50 at 72 h [5] of the same compound?
Answer: 4.9 µM

Question: What about the IC50 [3] of the same compound?
Answer: 5.5 µM

Question: Which results are given for `CC[C@H](C)C(=O)O[C@H]1C[C@@H](C)C=C2C=C[C@H](C)[C@H](CC[C@@H]3C[C@@H](O)CC(=O)O3)[C@H]21` [Lovastatin]?
Answer: Inhibition of luciferase expression in replicon cells (in words) [1]: dose dependent inhibition; IC50 [1]: 7.9 µM; IC50 at 72 h [5]: 158 µM; IC50 [3]: 89.3 µM; Replicon RNA by RT-PCR, normalised to beta actin [6]: quantitative reduction of replicon RNA

Question: With `C[C@@](O)(CCO)CC(=O)O` [MVA, mevalonic acid] as the compound, how does the “Rescue of atorvastatin inhibition of HCV replicon activity by MVA” value ([1]; 14 μM MVA, 10 uM atorvastatin, FIG. 3A) read?
Answer: begins to alleviate the atorvastatin inhibition

Question: What about the “Response of control HCV replicon cells to MVA” value ([1]; absence of statin, FIG. 3B) of the same compound?
Answer: do not respond

Question: And the “Rescue of atorvastatin inhibition of HCV replicon activity by MVA” value ([1]; further addition of MVA, 10 μM atorvastatin)?
Answer: completely restores replicon activity

Question: For `CC[C@H](C)C(=O)O[C@H]1C[C@H](O)C=C2C=C[C@H](C)[C@H](CC[C@@H](O)C[C@@H](O)CC(=O)O)[C@H]21` [Pravastatin], which IC50 [1] is on record?
Answer: 322 µM

Question: What about the “Cytostatic, % at one concentration” value [7] of the same compound?
Answer: 25% @ 500,000 μM

Question: With `CCC(C)(C)C(=O)O[C@H]1C[C@@H](C)C=C2C=C[C@H](C)[C@H](CC[C@@H]3C[C@@H](O)CC(=O)O3)[C@H]21` [Simvastatin] as the compound, how does the IC50 at 72 h [5] read?
Answer: 64.7 µM

Question: And the IC50 [3]?
Answer: 28 µM

Question: For Alpha interferon, which “Patients in whom an autoimmune condition is triggered” value [8] is on record?
Answer: about 2%
